Data taken from ChEMBL document CHEMBL1147957, “Synthesis and antitubercular activity of phenothiazines with reduced binding to dopamine and serotonin receptors” (2007).
≈ marks a conversion by molar mass, not a printed value. Where “and” joins values, the source holds several entries; their conditions need not be identical. Identical values can stand only once.

How the values were obtained:
[1] = system: Mycobacterium tuberculosis; assay: Antitubercular activity against Mycobacterium tuberculosis H37Rv by MABA assay; format: functional
[2] = target: T1, 5-hydroxytryptamine receptor 1A (Homo sapiens) (UniProt P08908); assay: Displacement of [3H]8-OH-DPAT from 5HT1A receptor at 10 uM
T1 sequence (whole entry): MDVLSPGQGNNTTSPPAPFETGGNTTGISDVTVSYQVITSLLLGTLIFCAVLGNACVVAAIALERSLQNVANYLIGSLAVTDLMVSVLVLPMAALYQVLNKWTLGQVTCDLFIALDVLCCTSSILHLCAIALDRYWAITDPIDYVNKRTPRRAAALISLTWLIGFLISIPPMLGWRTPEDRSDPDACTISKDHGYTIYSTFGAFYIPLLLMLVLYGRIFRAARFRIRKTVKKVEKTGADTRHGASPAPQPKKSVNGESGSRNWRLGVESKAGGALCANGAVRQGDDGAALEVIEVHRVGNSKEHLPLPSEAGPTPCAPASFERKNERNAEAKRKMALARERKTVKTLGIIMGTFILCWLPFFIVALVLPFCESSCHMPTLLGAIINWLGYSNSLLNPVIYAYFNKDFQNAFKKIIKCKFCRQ

[3] = target: T2, 5-hydroxytryptamine receptor 2C (Homo sapiens) (UniProt P28335); assay: Displacement of [3H]mesulergine from 5HT2C receptor at 10 uM
T2 sequence (whole entry): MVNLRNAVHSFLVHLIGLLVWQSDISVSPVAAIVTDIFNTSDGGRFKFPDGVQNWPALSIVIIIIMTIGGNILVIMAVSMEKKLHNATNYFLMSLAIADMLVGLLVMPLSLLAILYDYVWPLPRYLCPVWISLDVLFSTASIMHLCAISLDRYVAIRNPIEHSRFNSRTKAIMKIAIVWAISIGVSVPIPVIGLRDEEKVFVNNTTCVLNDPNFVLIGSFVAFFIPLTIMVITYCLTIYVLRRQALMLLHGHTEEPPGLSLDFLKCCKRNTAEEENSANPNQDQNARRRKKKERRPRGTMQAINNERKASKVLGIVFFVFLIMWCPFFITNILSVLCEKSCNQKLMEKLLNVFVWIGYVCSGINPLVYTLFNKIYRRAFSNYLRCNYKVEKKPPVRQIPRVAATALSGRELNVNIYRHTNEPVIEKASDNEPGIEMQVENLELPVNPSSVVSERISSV

[4] = target: D(2) dopamine receptor (Homo sapiens) (UniProt P14416); assay: Displacement of [3H]YM091512 from dopamine D2 receptor at 10 uM
Chain of D(2) dopamine receptor (Homo sapiens) (P14416 whole entry): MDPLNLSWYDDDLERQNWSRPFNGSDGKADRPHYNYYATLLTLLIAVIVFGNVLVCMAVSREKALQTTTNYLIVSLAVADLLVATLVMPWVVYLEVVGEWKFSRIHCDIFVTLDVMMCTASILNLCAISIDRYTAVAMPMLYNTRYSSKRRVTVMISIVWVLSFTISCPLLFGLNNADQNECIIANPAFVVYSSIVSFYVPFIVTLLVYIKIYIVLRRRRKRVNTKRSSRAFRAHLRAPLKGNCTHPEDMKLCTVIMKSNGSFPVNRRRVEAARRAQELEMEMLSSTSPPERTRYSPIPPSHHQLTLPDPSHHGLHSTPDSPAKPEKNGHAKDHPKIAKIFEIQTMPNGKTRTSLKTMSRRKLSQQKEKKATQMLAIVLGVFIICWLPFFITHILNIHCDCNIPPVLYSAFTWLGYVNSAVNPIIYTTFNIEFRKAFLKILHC

| Structure (SMILES) | MIC [1] [µg/mL] | Activity [2] | Activity [3] | Activity [4] |
| --- | --- | --- | --- | --- |
| CN1CCN(CCCN2c3ccccc3Sc3ccc(C(F)(F)F)cc32)CC1 [TRIFLUOPERAZINE] | 7.6 (≈ 18.7 µM) | – | – | – |
| CN(CCCN1c2ccccc2Sc2ccc(C(F)(F)F)cc21)Cc1ccccc1 | > 20 | 31% | 68% | 99% |
| FC(F)(F)c1ccc2c(c1)N(CCCN1CCN(c3ncccn3)CC1)c1ccccc1S2 | 16 (≈ 33.9 µM) | 94% | 85% | 50% |
| CC1CN(CCCN2c3ccccc3Sc3ccc(C(F)(F)F)cc32)CC(C)O1 (centres undefined) | > 20 | 98% | 30% | 99% |
| CC(CO)NCc1ccc(CN2c3ccccc3Sc3ccc(C(F)(F)F)cc32)cc1 (centres undefined) | 6.4 (≈ 14.4 µM) | 24% | 59% | 93% |
| FC(F)(F)c1ccc2c(c1)N(Cc1ccc(CN3c4ccccc4Sc4ccc(C(F)(F)F)cc43)cc1)c1ccccc1S2 | 2 (≈ 3.14 µM) | 0% | 0% | 40% |
| FC(F)(F)c1ccc2c(c1)N(CCCNc1ccccn1)c1ccccc1S2 | 20 (≈ 49.8 µM) | 45% | 93% | 85% |
| OC1CCN(CCCN2c3ccccc3Sc3ccc(C(F)(F)F)cc32)C1 (centres undefined) | 11 (≈ 27.9 µM) | 62% | 95% | 74% |
| CC1CN(Cc2ccc(CN3c4ccccc4Sc4ccc(C(F)(F)F)cc43)cc2)CC(C)O1 (centres undefined) | > 20 | 0% | 7% | 75% |
| CN1CCN(CCCN2c3ccccc3Sc3ccc(C(F)(F)F)cc32)CC1 | – | 76% and 67% | 91% and 97% | 100% and 98% |
| FC(F)(F)c1ccc2c(c1)N(Cc1ccc(CNc3ccccn3)cc1)c1ccccc1S2 | > 10 | 0% | 53% | 90% |
| FC(F)(F)c1ccc2c(c1)N(CCCNc1nccs1)c1ccccc1S2 | 14 (≈ 34.4 µM) | 54% | 81% | 95% |
| Cc1ccc2c(c1)Sc1ccccc1N2CC1CCCN(C)C1 (centres undefined) | 7.2 (≈ 22.2 µM) | 0% | 26% | 93% |
| CN1CCCC(CN2c3ccccc3Sc3ccc(-c4ccccc4)cc32)C1 (centres undefined) | 4.5 (≈ 11.6 µM) | 1% | 14% | 97% |
| FC(F)(F)c1ccc2c(c1)N(CCCNCc1ccccc1)c1ccccc1S2 | 4.2 (≈ 10.1 µM) | 61% | 85% | 97% |
| OC1CCN(Cc2ccc(CN3c4ccccc4Sc4ccc(C(F)(F)F)cc43)cc2)C1 (centres undefined) | 8.4 (≈ 18.4 µM) | 0% | 65% | 79% |
| FC(F)(F)c1ccc2c(c1)N(Cc1ccc(CNc3cccc(Oc4ccccc4)c3)cc1)c1ccccc1S2 | > 20 | 0% | 0% | 26% |
| FC(F)(F)c1ccc2c(c1)N(Cc1ccc(CNCc3ccccc3)cc1)c1ccccc1S2 | > 20 | 0% | 0% | 13% |
| CN1CCCC(CN2c3ccccc3Sc3cc(Cl)ccc32)C1 (centres undefined) | 14.3 (≈ 41.5 µM) | 0% | 67% | 94% |
| CN1CCN(CCCN2c3ccccc3Sc3ccc(C(F)(F)F)cc32)CC1.Cl | 6 | – | – | – |

| Structure (SMILES) | MIC [1] [µg/mL] | Activity [2] | Activity [3] | Activity [4] |
| --- | --- | --- | --- | --- |
| CN1CCN(Cc2ccc(CN3c4ccccc4Sc4ccc(C(F)(F)F)cc43)cc2)CC1 | 15 (≈ 31.9 µM) | 0% | 0% | 14% |
| CN1CCCC(CN2c3ccccc3Sc3cc(N4CCOCC4)ccc32)C1 (centres undefined) | > 2 | 0% | 7% | 59% |
| CN(C)CCCN1c2ccccc2Sc2ccc(Cl)cc21.Cl [CHLORPROMAZINE HYDROCHLORIDE] | 6 | 44% | 86% | 96% |
| FC(F)(F)c1ccc2c(c1)N(Cc1ccc(CNc3nccs3)cc1)c1ccccc1S2 | > 10 | 0% | 0% | 11% |
| CCN(CC)Cc1ccc(CN2c3ccccc3Sc3ccc(C(F)(F)F)cc32)cc1 | > 10 | 23% | 57% | 97% |
| FC(F)(F)c1ccc2c(c1)N(CCCNc1cccc(Oc3ccccc3)c1)c1ccccc1S2 | > 20 | 0% | 5% | 0% |
| CSc1ccc2c(c1)Sc1ccccc1N2CC1CCCN(C)C1 (centres undefined) | 11.6 (≈ 32.5 µM) | 67% | – | – |
| CCN(CC)CCCN1c2ccccc2Sc2ccc(C(F)(F)F)cc21 | 15 (≈ 39.4 µM) | 63% | 94% | 100% |
| CN1CCCC(CN2c3ccccc3Sc3cc(F)ccc32)C1 (centres undefined) | 10.8 (≈ 32.9 µM) | 7% | 89% | 87% |
| FC(F)(F)c1ccc2c(c1)N(Cc1ccc(CN3CCN(c4ncccn4)CC3)cc1)c1ccccc1S2 | > 20 | 10% | 0% | 72% |
| CC(CO)NCCCN1c2ccccc2Sc2ccc(C(F)(F)F)cc21 (centres undefined) | 4.6 (≈ 12 µM) | 58% | 91% | 100% |
| CN1CCCC(CN2c3ccccc3Sc3cc(-c4ccccc4)ccc32)C1 (centres undefined) | 2.1 (≈ 5.43 µM) | 0% | 58% | 96% |
| CN1CCCC(CN2c3ccccc3Sc3cnccc32)C1 (centres undefined) | > 20 | – | – | – |
| CN1CCCC(CN2c3ccccc3Sc3ccccc32)C1 (centres undefined) [MEPAZINE] | 17 (≈ 54.8 µM) | 0% | 29% | 88% |
| FC(F)(F)c1ccc2c(c1)N(CCCN1c3ccccc3Sc3ccc(C(F)(F)F)cc31)c1ccccc1S2 | 2.3 (≈ 4 µM) | 67% | 83% | 48% |
| COc1ccc2c(c1)Sc1ccccc1N2CC1CCCN(C)C1 (centres undefined) | > 20 | 0% | 41% | 75% |
| CN1CCCC(CN2c3ccccc3Sc3ccc(C(F)(F)F)cc32)C1 (centres undefined) | 7.2 (≈ 19 µM) | 5% | 56% | 87% |
| CN(Cc1ccccc1)Cc1ccc(CN2c3ccccc3Sc3ccc(C(F)(F)F)cc32)cc1 | > 20 | 4% | 0% | 66% |
| CN1CCCC(CN2c3ccccc3Sc3cccnc32)C1 (centres undefined) | > 10 | 19% | 47% | 86% |
